# Measured values from patent US10500169B2, “Supression of IgE production by compounds derived from traditional chinese medicine” (Sean N. Parker Foundation, priority 2014, dated 2019).
# Tests used:
# [1] = tested on: peanut-allergic patients with high levels of IgE; conditions: cited from earlier work
# peanut allergy subjects = conditions: cited from earlier work
# U266 cells [2] = assay: IgE production by U266 myeloma cells, ELISA of supernatants; assay type: cell-based, human; conditions: for IC50: 6 days culture, read-out: IC50 of inhibition of IgE production by U266 cells; for effect on IgE production by U266 cells (in words): different concentrations
# Procedure: The IgE producing human U266 myeloma cell line (American Type Culture Collection; Rockville, Md.) has been used for screening pharmaceutical agents for IgE inhibitory effects, and thus this cell line was used to test the potential IgE inhibitory effects of herb extracts and purified compounds. Cells were cultured at 37° C. under 5% CO2 in complete media containing RPMI 1640 medium supplemented, 10% FBS, 1 mM sodium pyruvate, 1×10^-5 M β-ME and 0.5% penicillin-streptomycin. Cells were grown at an initial concentration of 2×10^5 cells/mL. FAHF-2 and B-FAHF-2, individual herb extracts and isolated compounds at different concentrations were added at day 0. Supernatants were harvested after 6 days culture, and IgE levels were determined by using an ELISA Kit (Mabtech Inc, OH). In each experiment, we run duplicate ELISA. In vitro experiments were repeated at least 3 times.
# Human U266 myeloma cells (American Type Culture Collection; Rockville, Md.) were cultured in complete medium (RPMI 1640 medium supplemented, 10% FBS, 1 mM sodium pyruvate, 1×10^−5 M β-ME and 0.5% penicillin-streptomycin) at 37° C. under 5% CO2. Cells were grown at an initial concentration of 2×10^5 cells/mL with purpurin and alizarin from Rubia cordifolia L. at different concentrations (0.31, 0.62, 1.25, 2.5, 5 μg/mL), and with arctiin and arctigenin from Arctium lappa L. at different concentrations ([…]) for 6 days. The supernatants were harvested on day 6 for total IgE analysis using ELISA.
# [3] = tested on: peanut allergic C3H/HeJ mice; assay: Peanut allergic mouse model, 400 μg of compound intragastrically daily for 4 weeks; assay type: in vivo; conditions: for body temperature following PN challenge: 30 minutes after oral challenge; for histamine level in plasma: week 15 post therapy challenge
# Procedure: Freshly ground, whole roasted peanuts were homogenized in sterile PBS (Mediatech, VA) until a smooth suspension was obtained. Female C3H/HeJ mice were sensitized intragastrically (i.g.) with ground PN (10 mg/mouse) and cholera toxin (20 μg), on three consecutive days at week 0, and once a week for 5 weeks, and boosted at weeks 6 and 8 with 50 mg/mouse of PN and cholera toxin (20 μg) (FIG. 37A) as previous described^(40). Mice were intragastrically administered with 400 μg of three different active compounds (arctiin and arctigenin from Arctium lappa L., and 1,3-Dihydroxyanthraquinone from Rubia cordifolia L.) daily 24 h after the week 8 boosting and under this treatment for 4 weeks. Eight PN sensitized/boosted mice receiving 0.5 ml of 0.1% DMSO in water twice daily for the same period of treatment time as sham control mice for this experiment.
# Anaphylactic symptoms were evaluated 30 min after challenge dose by two investigators using a scoring system described previously: […]; 1, scratching and rubbing around the snout and head; 2, puffiness around the eyes and mouth, pilar erection and reduced activity with an increased respiratory rate; 3, wheezing, labored respiration and cyanosis around the mouth; 4, no activity after prodding, or tremors, and convulsion; 5, death due to anaphylaxis.
# To test the IgE inhibition effect of arctiin, arctigenin, and 1,3-dihydroxyanthraquinone in vivo, we treated peanut allergic mice with 400 μg of each active compound daily for four weeks, as shown in FIG. 37A.^(2)
# [4] = tested on: peanut sensitized C3H/HeJ Mice; assay: Peanut allergic mouse model, 1,3-Dihydroxyanthraquinone 200 μg per mouse per day for seven weeks; assay type: in vivo
# Procedure: FIG. 10 illustrates the in vivo experiment protocol. C3H/HeJ Mice were orally sensitized with 10 mg peanut and […] weekly for 5 weeks as described in methods. At weeks 6, 7 and 8, mice were boosted with 50 mg peanut mixed with cholera toxin. Seven weeks of 1,3-Dihydroxyanthraquinone (200 μg per mouse per day) treatment was started at W6. Mice were challenged with PN at week 13 and again at week 18. Mice were sacrificed 48 hours after last challenge.
# U266 cells [5] = assay: Cell viability of U266 cells, trypan blue exclusion; assay type: cell-based, human; conditions: at the concentrations tested
# Procedure: Cell viability was evaluated using a trypan blue exclusion as previously described. Briefly, a 10 μl of cells suspension from each culture was mixed with equal volume of trypan blue dye. The mixture was loaded into a hemocytometer and cells were counted under a microscope. The percentage of viable cells was calculated as follows: Viable cells (%)=(total number of viable cells)/(total number of cells)×100.
# human PBMCs = assay: IgE production by PBMCs from food allergic patients stimulated with rIL-4 and anti-CD40 mAb, ELISA; assay type: cell-based; conditions: Homo sapiens, PBMC, 240 h; 20 μg/mL, 10 days, rIL-4 100 ng/mL + anti-CD40 mAb 1 μg/mL
# Procedure: PBMCs were isolated by Ficoll Hypaque (Pharmacia, Piscataway, N.J.) using density gradient centrifugation at 1800 RPM for 30 minutes, and washed 3 times in PBS. To determine the optimal stimulation of IgE production by PBMCs, PBMCs at 1.5×10^6 cells/mL were suspended in complete RPMI medium (200 μM L-glutamine, 1% penicillin/streptomycin, 25 mM HEPES, 10% heat inactivated fetal calf serum), and co-stimulated with human recombinant IL-4 (rIL-4) at 0.01 and 0.1 μg/mL (R&D Systems, Minneapolis, Minn., USA) and anti-CD40 monoclonal antibody (mAb) at […] (R&D) for 10 and 14 days. At the end of incubation, the supernatants were collected and IgE levels were analyzed using ELISA kit (Mabtech Inc, OH). Since PBMCs stimulated with 100 ng/mL rIL-4 and 1 μg/mL anti-CD40 mAb produced the highest level of IgE, we used this culture condition for the subsequent studies. PBMCs were stimulated with 100 ng/mL rIL-4 and 1 μg/mL anti-CD40 mAb and cultured in the presence or absence of 20 μg/mL of the two purified compounds for 10 days for screening active compounds, and at different concentrations (0.15, 0.31, 0.62, 1.25, 2.5, 5, 10 μg/mL) to examine dose responses for the effective compounds. IgE level was evaluated using ELISA. The percentage of IgE inhibition was calculated as follows: […]. In some cases if enough PBMCs were obtained, aliquots of PBMCs prepared from the same individuals were used for different experiments.
compound,measurement,setting,value
"omalizumab: anti-IgE antibody (Xolair, Genentech)",subjects tolerating 4000 mg of peanut flour,[1]; after 7-12 weeks,Twelve of thirteen
same,subjects tolerating a cumulative dose of 992 mg peanut flour,[1]; first day,All thirteen
same,patients requiring epinephrine,[1]; in vivo,2 patients
same,peanut tolerability in oral food challenge,"peanut allergy subjects; post-therapy (24-week), vs placebo",greater shift in peanut tolerability
same,serum peanut specific IgE,peanut allergy subjects; post-therapy,reduction of serum peanut specific IgE
O=C1c2ccccc2C(=O)c2c(O)c(O)cc(O)c21 [purpurin],IC50,"U266 cells [2]; Homo sapiens, U-266, 144 h",0.353 µg/mL
same,effect on IgE production by U266 cells (in words),U266 cells [2]; 6 days,inhibited the IgE production in a dose-dependent manner
COc1cc(C[C@H]2C(=O)OC[C@@H]2Cc2ccc(OC)c(OC)c2)ccc1O [arctigenin],protection against acute peanut induced anaphylaxis,[3]; 400 μg daily for four weeks,protected against the acute anaphylaxis
same,body temperature following PN challenge,[3],normal body temperatures
same,histamine level in plasma,[3]; vs sham,significantly decreased
same,effect on IgE production by U266 cells (in words),U266 cells [2]; 6 days,inhibited the IgE production by U266 in dose-dependent manner
O=C1c2ccccc2C(=O)c2c1ccc(O)c2O [alizarin],IC50,"U266 cells [2]; Homo sapiens, U-266, 144 h",0.762 µg/mL
same,effect on IgE production by U266 cells (in words),U266 cells [2]; 6 days,inhibited the IgE production in a dose-dependent manner
"O=C1c2ccccc2C(=O)c2c(O)cc(O)cc21 [1,3-Dihydroxyanthraquinone]",protection against acute peanut induced anaphylaxis,[3]; 400 μg daily for four weeks,protected against the acute anaphylaxis
same,median anaphylactic symptom score,"[3]; 400 μg daily for four weeks, vs sham",significant lower
same,body temperature following PN challenge,[3],normal body temperatures
same,histamine level in plasma,[3]; vs sham,significantly decreased
same,symptom scores following peanut challenge,[4]; vs sham,significantly weaker reactions
same,Peanut-Specific IgE levels,[4]; weeks 12 and 16,markedly reduced
same,effect on IgE production by U266 cells (in words),U266 cells [2]; 6 days,dose-dependent inhibition
CC1(C)O[C@H]2CC(=O)OC[C@]23[C@H]2CC[C@@]4(C)[C@H](c5ccoc5)OC(=O)[C@H]5O[C@]54[C@]2(C)C(=O)C[C@@H]13 [limonin],inhibition at 20 µg/mL,"U266 cells [2]; Homo sapiens, U-266, 144 h, 20 μg/mL, 6 days",35.1%
same,effect on IgE production by U266 cells (in words),U266 cells [2]; 6 days,mild reduction of IgE production
same,cell viability of U266 cells,U266 cells [5],no toxicity
same,inhibition at 20 µg/mL,human PBMCs,33.9%
COc1ccc(C[C@H]2COC(=O)[C@@H]2Cc2ccc(O[C@@H]3O[C@H](CO)[C@@H](O)[C@H](O)[C@H]3O)c(OC)c2)cc1OC [arctiin],effect on IgE production by U266 cells (in words),U266 cells [2]; 6 days,inhibited the IgE production by U266 in dose-dependent manner
